Activity calls are given as the source filed them. No cut-off for these calls is given here.
Assays:
[1] = system: NCI-H1299; assay: cells; conditions: Homo sapiens, NCI-H1299, 48 h
Description: Antiproliferative activity against human NCI-H1299 cells assessed as inhibition of cell growth incubated for 48 hrs by MTT assay

[2] = target: Dual specificity protein kinase CLK3 (Homo sapiens, UniProt P49761); assay: Inhibition of CLK3 (unknown origin) by ADP-Glo assay
[3] = target: T1, Dual specificity protein kinase CLK2 (Homo sapiens, UniProt P49760); assay: Inhibition of CLK2 (unknown origin) by ADP-Glo assay
Target sequence in this assay (P49760 whole entry): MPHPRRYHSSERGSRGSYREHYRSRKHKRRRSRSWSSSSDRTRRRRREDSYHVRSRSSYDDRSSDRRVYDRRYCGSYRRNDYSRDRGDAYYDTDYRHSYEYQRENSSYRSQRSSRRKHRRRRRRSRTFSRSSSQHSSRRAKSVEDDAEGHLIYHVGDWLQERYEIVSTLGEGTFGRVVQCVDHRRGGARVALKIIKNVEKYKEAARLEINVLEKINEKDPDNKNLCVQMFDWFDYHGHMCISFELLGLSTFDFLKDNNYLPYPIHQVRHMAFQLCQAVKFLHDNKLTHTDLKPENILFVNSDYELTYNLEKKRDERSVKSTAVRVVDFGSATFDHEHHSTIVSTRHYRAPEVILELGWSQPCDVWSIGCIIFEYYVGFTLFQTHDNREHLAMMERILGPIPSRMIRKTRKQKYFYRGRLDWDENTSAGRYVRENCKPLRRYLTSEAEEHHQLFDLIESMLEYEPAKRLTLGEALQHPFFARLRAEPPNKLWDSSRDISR

[4] = system: NCI-H1299; assay: Inhibition of colony formation in human NCI-H1299 cells at 1 uM incubated for 7 days by crystal violet staining based analysis; format: functional, cell-based; conditions: time 7.0 day
[5] = target: T1, Dual specificity protein kinase CLK2; conditions: dose 20.0 nM
Target sequence in this assay (P49760 whole entry, looked up): as the sequence (P49760 whole entry) above
Description: Inhibition of CLK2 (unknown origin) at 20 nM by ADP-Glo assay relative to control

[6] = system: Osimertinib-resistant NCI-H1975 cell; assay: cells; conditions: Homo sapiens, 48 h
Description: Antiproliferative activity against human Osimertinib-resistant NCI-H1975 cell assessed as inhibition of cell growth incubated for 48 hrs by MTT assay

[7] = system: NCI-H1975; assay: cells; conditions: Homo sapiens, NCI-H1975, 48 h
Description: Antiproliferative activity against human NCI-H1975 cells assessed as inhibition of cell growth incubated for 48 hrs by MTT assay

[8] = cells; conditions: Homo sapiens, Osimertinib-resistant HCC827AR cell, 48 h
Description: Antiproliferative activity against human Osimertinib-resistant HCC827AR cell assessed as inhibition of cell growth incubated for 48 hrs by MTT assay

[9] = system: HCC827; assay: cells; conditions: Homo sapiens, HCC827, 48 h
Description: Antiproliferative activity against human HCC827 cells assessed as inhibition of cell growth incubated for 48 hrs by MTT assay

[10] = system: A549; assay: cells; conditions: Homo sapiens, A549, 48 h
Description: Antiproliferative activity against human A549 cells assessed as inhibition of cell growth incubated for 48 hrs by MTT assay

Dual specificity protein kinase CLK3, sequence (P49761 whole entry): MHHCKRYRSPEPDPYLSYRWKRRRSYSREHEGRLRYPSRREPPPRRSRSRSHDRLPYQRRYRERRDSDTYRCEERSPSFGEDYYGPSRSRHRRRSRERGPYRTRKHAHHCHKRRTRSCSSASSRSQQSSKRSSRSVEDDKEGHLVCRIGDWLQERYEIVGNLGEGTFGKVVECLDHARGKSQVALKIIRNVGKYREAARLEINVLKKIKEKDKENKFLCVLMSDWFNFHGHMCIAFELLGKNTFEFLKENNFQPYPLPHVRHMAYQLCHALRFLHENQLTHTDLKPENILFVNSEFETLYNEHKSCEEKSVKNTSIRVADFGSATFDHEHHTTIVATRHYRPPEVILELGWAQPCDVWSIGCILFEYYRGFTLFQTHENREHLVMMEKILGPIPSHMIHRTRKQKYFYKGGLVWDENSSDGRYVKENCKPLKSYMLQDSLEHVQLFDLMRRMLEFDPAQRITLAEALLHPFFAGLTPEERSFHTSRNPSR

SMILES | IC50 [1] [nM] | further results
Cc1[nH]nc2ccc(-c3cncc(OC[C@@H](N)CC(C)C)c3)cc12 | 2510 | IC50 [2]: > 100 nM; IC50 [3]: 4.1 nM; inhibition [4]: inactive; inhibition [5]: 98.5%; IC50 [6]: 1920 nM; IC50 [7]: 1720 nM; IC50 [8]: 3670 nM; IC50 [9]: 3950 nM; IC50 [10]: 3950 nM
CC(C)C[C@H](N)COc1cncc(-c2ccc3[nH]nc(-c4nc(-c5ccccc5)c(-c5ccccc5)[nH]4)c3c2)c1 | 2380 | –
CC(C)CC(=O)Nc1cncc(-c2ccc3[nH]nc(-c4nc(-c5cccnc5)c[nH]4)c3c2)c1 | 820 | –
CC(C)C[C@H](N)COc1cncc(-c2ccc3[nH]nc(-c4nc(-c5cccnc5)c[nH]4)c3c2)c1 | 700 | –
CC(C)CC(=O)Nc1cncc(-c2ccc3[nH]nc(-c4nc(-c5cccc(C(F)(F)F)c5)c[nH]4)c3c2)c1 | 3070 | –
CC(C)C[C@H](N)COc1cncc(-c2ccc3[nH]nc(-c4nc(-c5ccco5)c[nH]4)c3c2)c1 | 480 | –
CCc1[nH]c(-c2n[nH]c3ccc(-c4cncc(NC(=O)CC(C)C)c4)cc23)nc1C | 1620 | –
CC(C)CC(=O)Nc1cncc(-c2ccc3[nH]nc(-c4nc(-c5ccco5)c[nH]4)c3c2)c1 | 1420 | –
CC(C)C[C@H](N)COc1cncc(-c2ccc3[nH]nc(-c4nc(-c5cccc(C(F)(F)F)c5)c[nH]4)c3c2)c1 | 1160 | –
CC(C)C[C@H](N)COc1cncc(-c2ccc3[nH]nc(-c4nc(-c5ccco5)c(-c5ccco5)[nH]4)c3c2)c1 | 1680 | –
CC(C)CC(=O)Nc1cncc(-c2ccc3[nH]nc(-c4nc(-c5ccsc5)c[nH]4)c3c2)c1 | 910 | –
CC(C)C[C@H](N)COc1cncc(-c2ccc3[nH]nc(-c4nc(-c5ccsc5)c[nH]4)c3c2)c1 | 1150 | –
CC(C)CC(=O)Nc1cncc(-c2ccc3[nH]nc(-c4nc(-c5ccco5)c(-c5ccco5)[nH]4)c3c2)c1 | 1530 | –

Further lines, with some results ahead:

IC50 [1] [nM] | SMILES | further results
6580 | FC1(F)CCN(Cc2cncc(-c3ccc4[nH]nc(-c5nc(-c6ccccc6)c(-c6ccccc6)[nH]5)c4c3)c2)C1 | –
1380 | Cc1nc(-c2n[nH]c3ccc(-c4cncc(NC(=O)CC(C)C)c4)cc23)[nH]c1-c1ccccc1 | –
2660 | FC1(F)CCN(Cc2cncc(-c3ccc4[nH]nc(-c5nc(-c6cccc(C(F)(F)F)c6)c[nH]5)c4c3)c2)C1 | –
1380 | FC1(F)CCN(Cc2cncc(-c3ccc4[nH]nc(-c5nc(-c6ccsc6)c[nH]5)c4c3)c2)C1 | –
720 | FC1(F)CCN(Cc2cncc(-c3ccc4[nH]nc(-c5nc(-c6ccco6)c[nH]5)c4c3)c2)C1 | –
260 | FC1(F)CCN(Cc2cncc(-c3ccc4[nH]nc(-c5nc(-c6cccnc6)c[nH]5)c4c3)c2)C1 | –
1270 | FC1(F)CCN(Cc2cncc(-c3ccc4[nH]nc(-c5nc(-c6ccccc6)c[nH]5)c4c3)c2)C1 | –
1620 | Cc1nc(-c2n[nH]c3ccc(-c4cncc(CN5CCC(F)(F)C5)c4)cc23)[nH]c1-c1ccccc1 | –
450 | Cc1nc(-c2n[nH]c3ccc(-c4cncc(OC[C@@H](N)CC(C)C)c4)cc23)[nH]c1-c1ccccc1 | –

Source: ChEMBL document CHEMBL6092179, “Discovery of CLKs inhibitors for the treatment of non-small cell lung cancer” (Eur J Med Chem, 2024)
